Results: PubChem BioAssay (NCI)
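Briefly, cells in 96-well plates were exposed to five compound concentrations for 48 h, and endpoints were estimated by linear interpolation. Abbreviation: GI50, concentration required for 50% inhibition of growth. Definition used: TGI = concentration required for complete inhibition of growth.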

What was measured:
Test in all cases: inhibition of tumour cell growth, NCI panel, 48 h
[1] = tested on: 786-0 renal
[2] = tested on: A498 renal
[3] = tested on: A549 NSCLC
[4] = tested on: ACHN renal
[5] = tested on: BT-549 breast
[6] = tested on: CAKI-1 renal
[7] = tested on: CCRF-CEM leukemia
[8] = tested on: COLO 205 colon
[9] = tested on: DU-145 prostate
[10] = tested on: EKVX NSCLC
[11] = tested on: HCC-2998 colon
[12] = tested on: HCT-116 colon
[13] = tested on: HCT-15 colon
[14] = tested on: HL-60(TB) leukemia
[15] = tested on: HOP-62 NSCLC
[16] = tested on: HOP-92 NSCLC
[17] = tested on: HS 578T breast
[18] = tested on: HT29 colon
[19] = tested on: IGROV1 ovarian
[20] = tested on: K-562 leukemia
[21] = tested on: KM12 colon
[22] = tested on: LOX IMVI melanoma
[23] = tested on: M14 melanoma
[24] = tested on: MALME-3M melanoma
[25] = tested on: MCF7 breast
[26] = tested on: MDA-MB-231 breast
[27] = tested on: MDA-MB-435
[28] = tested on: NCI-H226 lung
[29] = tested on: NCI-H23 lung
[30] = tested on: NCI-H460 lung
[31] = tested on: NCI-H522 lung
[32] = tested on: NCI/ADR-RES ovarian
[33] = tested on: OVCAR-3 ovarian
[34] = tested on: OVCAR-4 ovarian
[35] = tested on: OVCAR-5 ovarian
[36] = tested on: OVCAR-8 ovarian
[37] = tested on: PC-3 prostate
[38] = tested on: RPMI-8226 leukemia
[39] = tested on: RXF 393 renal
[40] = tested on: SF-268 CNS
[41] = tested on: SF-295 CNS
[42] = tested on: SF-539 CNS
[43] = tested on: SK-MEL-2 melanoma
[44] = tested on: SK-MEL-28 melanoma
[45] = tested on: SK-MEL-5 melanoma
[46] = tested on: SK-OV-3 ovarian
[47] = tested on: SN12C renal
[48] = tested on: SNB-19 CNS
[49] = tested on: SNB-75 CNS
[50] = tested on: SR leukemia
[51] = tested on: SW-620 colon
[52] = tested on: T-47D breast
[53] = tested on: TK-10 renal
[54] = tested on: U251 CNS
[55] = tested on: UACC-257 melanoma
[56] = tested on: UACC-62 melanoma
[57] = tested on: UO-31 renal

SMILES: CCN(CC)CCOc1ccc(C(=O)/C=C\c2ccc(Cl)cc2Cl)cc1
- GI50 [1]: 6.44 µM
- TGI [1]: 20.3 µM
- GI50 [2]: 12.3 µM
- TGI [2]: 24.7 µM
- GI50 [3]: 6.55 µM
- TGI [3]: 22.6 µM
- GI50 [4]: 4.73 µM
- TGI [4]: 17.8 µM
- GI50 [5]: 5.83 µM
- TGI [5]: 18.2 µM
- GI50 [6]: 10.5 µM
- TGI [6]: 22.3 µM
- GI50 [7]: 2.57 µM
- TGI [7]: 9.09 µM
- GI50 [8]: 1.95 µM
- TGI [8]: 5.15 µM
- GI50 [9]: 10.3 µM
- TGI [9]: 22 µM
- GI50 [10]: 12.6 µM
- TGI [10]: 25.1 µM
- GI50 [11]: 2.18 µM
- TGI [11]: 4.65 µM
- GI50 [12]: 1.56 µM
- TGI [12]: 3.31 µM
- GI50 [13]: 2.15 µM
- TGI [13]: 5.16 µM
- GI50 [14]: 2.67 µM
- TGI [14]: 6.25 µM
- GI50 [15]: 11 µM
- TGI [15]: 24.9 µM
- GI50 [16]: 3.63 µM
- TGI [16]: 16.3 µM
- GI50 [17]: 9.47 µM
- TGI [17]: 32 µM
- GI50 [18]: 2.06 µM
- TGI [18]: 5.62 µM
- GI50 [19]: 4.63 µM
- TGI [19]: 22.4 µM
- GI50 [20]: 2.41 µM
- TGI [20]: 9.13 µM
- GI50 [21]: 1.92 µM
- TGI [21]: 4.16 µM
- GI50 [22]: 1.78 µM
- TGI [22]: 3.6 µM
- GI50 [23]: 2.17 µM
- TGI [23]: 5 µM
- GI50 [24]: 3.41 µM
- TGI [24]: 15.3 µM
- GI50 [25]: 1.29 µM
- TGI [25]: 3.12 µM
- GI50 [26]: 4.92 µM
- TGI [26]: 20.1 µM
- GI50 [27]: 2.56 µM
- TGI [27]: 7.36 µM
- GI50 [28]: 11.3 µM
- TGI [28]: 26.6 µM
- GI50 [29]: 7.15 µM
- TGI [29]: 22.1 µM
- GI50 [30]: 11.1 µM
- TGI [30]: 26.1 µM
- GI50 [31]: 15.2 µM
- TGI [31]: 35.6 µM
- GI50 [32]: 9.91 µM
- TGI [32]: 23.3 µM
- GI50 [33]: 3.84 µM
- TGI [33]: 14.3 µM
- GI50 [34]: 3.82 µM
- TGI [34]: 16.6 µM
- GI50 [35]: 10.3 µM
- TGI [35]: 27.2 µM
- GI50 [36]: 13.4 µM
- TGI [36]: 28.1 µM
- GI50 [37]: 4.1 µM
- TGI [37]: 14.5 µM
- GI50 [38]: 1.94 µM
- TGI [38]: 6.34 µM
- GI50 [39]: 5.13 µM
- TGI [39]: 18.1 µM
- GI50 [40]: 8.41 µM
- TGI [40]: 23.7 µM
- GI50 [41]: 8.7 µM
- TGI [41]: 22.3 µM
- GI50 [42]: 4.05 µM
- TGI [42]: 16.4 µM
- GI50 [43]: 15 µM
- TGI [43]: 28.5 µM
- GI50 [44]: 2.55 µM
- TGI [44]: 7.75 µM
- GI50 [45]: 3.14 µM
- TGI [45]: 12.3 µM
- GI50 [46]: 11.8 µM
- TGI [46]: 24.3 µM
- GI50 [47]: 6.52 µM
- TGI [47]: 21.9 µM
- GI50 [48]: 6.81 µM
- TGI [48]: 24.4 µM
- GI50 [49]: 2.53 µM
- TGI [49]: 12.1 µM
- GI50 [50]: 1.69 µM
- TGI [50]: 5.34 µM
- GI50 [51]: 1.87 µM
- TGI [51]: 4.36 µM
- GI50 [52]: 11.9 µM
- TGI [52]: 33.6 µM
- GI50 [53]: 15.6 µM
- TGI [53]: 29.2 µM
- GI50 [54]: 7.16 µM
- TGI [54]: 21.3 µM
- GI50 [55]: 4.51 µM
- TGI [55]: 15.2 µM
- GI50 [56]: 2.08 µM
- TGI [56]: 4.71 µM
- GI50 [57]: 4.06 µM
- TGI [57]: 17.2 µM
